How the values were obtained:
Assay type in all cases: in vivo
[1] = test system: Lolium perenne (LOLPE); assay: Glasshouse herbicidal test, pre- and post-emergence, Lolium perenne; conditions: 250 g/h, evaluated after 13 days, five point scale; for percentage damage caused to the plant, LOLPE POST: post-emergence; for percentage damage caused to the plant, LOLPE PRE: pre-emergence
Method in brief: (§1)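 A single spray at 250 g/h was given either to soil one day after sowing or to seedlings after eight days' growth. Vehicle was acetone/water (50:50) with 0.5% Tween 20. Thirteen days on, damage was rated in 20% bands, 1 (0-19%) to 5 (80-100%).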

[2] = test system: Setaria faberi (SETFA); assay: Glasshouse herbicidal test, pre- and post-emergence, Setaria faberi; conditions: 250 g/h, evaluated after 13 days, five point scale; for percentage damage caused to the plant, SETFA PRE: pre-emergence; for percentage damage caused to the plant, SETFA POST: post-emergence
Method in brief: as §1

[3] = test system: Alopecurus myosuroides (ALOMY); assay: Glasshouse herbicidal test, pre- and post-emergence, Alopecurus myosuroides; conditions: 250 g/h, evaluated after 13 days, five point scale; for percentage damage caused to the plant, ALOMY POST: post-emergence; for percentage damage caused to the plant, ALOMY PRE: pre-emergence
Method in brief: as §1

[4] = test system: Echinochloa crus-galli (ECHCG); assay: Glasshouse herbicidal test, pre- and post-emergence, Echinochloa crus-galli; conditions: 250 g/h, evaluated after 13 days, five point scale; for percentage damage caused to the plant, ECHCG POST: post-emergence; for percentage damage caused to the plant, ECHCG PRE: pre-emergence
Method in brief: as §1

[5] = test system: Avena fatua (AVEFA); assay: Glasshouse herbicidal test, pre- and post-emergence, Avena fatua; conditions: 250 g/h, evaluated after 13 days, five point scale; for percentage damage caused to the plant, AVEFA POST: post-emergence; for percentage damage caused to the plant, AVEFA PRE: pre-emergence
Method in brief: as §1

[6] = test system: wheat; assay: Post-emergence crop phytotoxicity, wheat, with or without safener CQC
Protocol: (§2) Seeds of a variety of test species are sown in standard soil in pots (Lolium perenne (LOLPE), Setaria faberi (SETFA), Alopecurus myosuroides (ALOMY), Echinochloa crus-galli (ECHCG), Avena fatua (AVEFA)). After cultivation for one day (pre-emergence) or after 8 days cultivation (post-emergence) under controlled conditions in a glasshouse (at 24/16° C., day/night; 14 hours light; 65% humidity), the plants are sprayed with an aqueous spray solution derived from the formulation of the technical active ingredient in acetone/water (50:50) solution containing 0.5% Tween 20 (polyoxyethelyene sorbitan monolaurate, CAS RN 9005-64-5). Compounds are applied at […]. The test plants are then grown in a glasshouse under controlled conditions in a glasshouse (at 24/16° C., day/night; 14 hours light; 65% humidity) and watered twice daily. After 13 days for pre and post-emergence, the test is evaluated for the percentage damage caused to the plant. The biological activities are shown in the following table on a five point scale (5=80-100%; 4=60-79%; 3=40-59%; 2=20-39%; 1=0-19%).
(§3) Using procedures outlines above, wheat and barley crop plants are treated, along with two weed species Avena fatua (AVEFA) and Lolium multiflorum (LOLPE) post-emergence with compound A2 of the present invention or comparator compound C1 (Compound A-38 from WO2014/096289) at the application rates indicated. The compounds were also applied in conjunction with the safener compound cloquintocet-mexyl (CQC) at 50 g/ha.

[7] = test system: barley; assay: Post-emergence crop phytotoxicity, barley, with or without safener CQC
Protocol: as §2, §3

[8] = test system: Avena fatua (AVEFA); assay: Post-emergence weed phytotoxicity, Avena fatua, with or without safener CQC
Protocol: as §2, §3

[9] = test system: Lolium multiflorum; assay: Post-emergence weed phytotoxicity, Lolium multiflorum, with or without safener CQC
Protocol: as §2, §3

[10] = 60 g/ha + safener cloquintocet-mexyl (CQC) at 50 g/ha

Compound	percentage damage caused to the plant, LOLPE POST [1]	percentage damage caused to the plant, LOLPE PRE [1]	percentage damage caused to the plant, SETFA PRE [2]	percentage damage caused to the plant, ALOMY POST [3]	percentage damage caused to the plant, ALOMY PRE [3]	percentage damage caused to the plant, ECHCG POST [4]	percentage damage caused to the plant, ECHCG PRE [4]	percentage damage caused to the plant, AVEFA POST [5]	percentage damage caused to the plant, AVEFA PRE [5]	% phytotoxicity, Wheat ([6]; 30 g/ha) [%]	% phytotoxicity, Wheat ([6]; 60 g/ha) [%]	% phytotoxicity, Wheat [6, 10] [%]	% phytotoxicity, Barley ([7]; 30 g/ha) [%]	% phytotoxicity, Barley ([7]; 60 g/ha) [%]	% phytotoxicity, Barley [7, 10] [%]	% phytotoxicity, AVENA ([8]; 30 g/ha) [%]	% phytotoxicity, AVENA ([8]; 60 g/ha) [%]	% phytotoxicity, AVENA [8, 10] [%]	% phytotoxicity, LOLMU ([9]; 30 g/ha) [%]	percentage damage caused to the plant, SETFA POST [2]	further results
CC#Cc1cc(C)c(C2C(=O)CC3(CCN(C(C)=O)CC3)CC2=O)c(C)c1 [Compound A2, 3-acetyl-9-(2,6-dimethyl-4-prop-1-ynyl-phenyl)-3-azaspiro[5.5]undecane-8,10-dione]	5 (5=80-100%)	5 (5=80-100%)	5 (5=80-100%)	5 (5=80-100%)	5 (5=80-100%)	5 (5=80-100%)	5 (5=80-100%)	5 (5=80-100%)	5 (5=80-100%)	5	15	5	0	15	0	75	92	92	98	–	damage to the wheat crop compared to prior art compound C1 ([6]; rates of Table B2): significantly less damaging; damage to the barley crop compared to prior art compound C1 ([7]; rates of Table B2): significantly less damaging; % phytotoxicity, LOLMU ([9]; 60 g/ha): 100%; % phytotoxicity, LOLMU [9, 10]: 100%
CC#Cc1cc(C)c(C2C(=O)CC3(CCN(C(=O)C(C)(C)C)CC3)CC2=O)c(OC)c1 [Compound A20]	5 (5=80-100%)	5 (5=80-100%)	5 (5=80-100%)	5 (5=80-100%)	5 (5=80-100%)	5 (5=80-100%)	5 (5=80-100%)	5 (5=80-100%)	5 (5=80-100%)	–	–	–	–	–	–	–	–	–	–	5 (5=80-100%)	–
CC#Cc1cc(C)c(C2C(=O)CC3(CCOCC3)CC2=O)c(C)c1 [Compound C1, reference compound]	–	–	–	–	–	–	–	–	–	25	75	50	5	90	18	65	90	80	98	–	% phytotoxicity, LOLMU ([9]; 60 g/ha): 100%; % phytotoxicity, LOLMU [9, 10]: 100%
CC#Cc1cc(C)c(C2C(=O)CC3(CCN(C(=O)C(F)F)CC3)CC2=O)c(OC)c1 [Compound A19]	5 (5=80-100%)	5 (5=80-100%)	5 (5=80-100%)	5 (5=80-100%)	5 (5=80-100%)	–	5 (5=80-100%)	5 (5=80-100%)	5 (5=80-100%)	–	–	–	–	–	–	–	–	–	–	5 (5=80-100%)	–
CC#Cc1cc(OC)c(C2C(=O)CC3(CCN(C(C)=O)CC3)CC2=O)c(OC)c1 [Compound A14]	5 (5=80-100%)	5 (5=80-100%)	5 (5=80-100%)	5 (5=80-100%)	5 (5=80-100%)	5 (5=80-100%)	5 (5=80-100%)	5 (5=80-100%)	5 (5=80-100%)	–	–	–	–	–	–	–	–	–	–	5 (5=80-100%)	–
CC#Cc1cc(C)c(C2=C(OS(=O)(=O)CC)CC3(CCN(C(C)=O)CC3)CC2=O)c(C)c1 [Compound P13]	5 (5=80-100%)	5 (5=80-100%)	5 (5=80-100%)	5 (5=80-100%)	4 (4=60-79%)	5 (5=80-100%)	4 (4=60-79%)	5 (5=80-100%)	5 (5=80-100%)	–	–	–	–	–	–	–	–	–	–	5 (5=80-100%)	–

From patent US11542235B2, “Herbicidal 3-azaspiro[5.5] undecane-8, 10-dione compounds” (SYNGENTA PARTICIPATIONS AG, priority 2018, dated 2023)
